“And” between values parts separate entries of the source, which are not always exact repeats. Identical values can stand only once.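 The compound was tested at five concentrations on cells cultured in 96-well plates, with a 48-hour exposure period. GI50 = concentration required for 50% inhibition of growth. TGI is the concentration that stops growth completely.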
Tests used:
Assay in all cases: DTP human tumour cell line panel, 48 h
SN12C renal = system: SN12C renal
OVCAR-3 ovarian = system: OVCAR-3 ovarian
SK-MEL-28 melanoma = system: SK-MEL-28 melanoma
MCF7 breast = system: MCF7 breast
COLO 205 colon = system: COLO 205 colon
HOP-92 NSCLC = system: HOP-92 NSCLC
MALME-3M melanoma = system: MALME-3M melanoma
RPMI-8226 leukemia = system: RPMI-8226 leukemia
MOLT-4 leukemia = system: MOLT-4 leukemia
BT-549 breast = system: BT-549 breast

SMILES | TGI (SN12C renal) [µM] | TGI (OVCAR-3 ovarian) [µM] | TGI (SK-MEL-28 melanoma) [µM] | TGI (MCF7 breast) [µM] | TGI (COLO 205 colon) | TGI (HOP-92 NSCLC) [µM] | TGI (MALME-3M melanoma) [µM] | TGI (RPMI-8226 leukemia) [µM] | TGI (MOLT-4 leukemia) [µM] | GI50 (SN12C renal) [µM] | GI50 (BT-549 breast) [µM] | TGI (BT-549 breast) [µM] | GI50 (OVCAR-3 ovarian) [µM] | GI50 (SK-MEL-28 melanoma) [µM] | GI50 (MCF7 breast) [µM] | GI50 (COLO 205 colon) [µM] | GI50 (HOP-92 NSCLC) [µM] | GI50 (RPMI-8226 leukemia) [µM] | GI50 (MOLT-4 leukemia) [µM] | GI50 (MALME-3M melanoma) [µM]
O=C(O)CC1C(=O)OC2C3COC(=O)c4cc(O)c(O)c(O)c4-c4c(cc(O)c(O)c4O)C(=O)OC2C(OC(=O)c2cc(O)c(O)c4c2C1C(O)C(=O)O4)C(OC(=O)c1cc(O)c(O)c(O)c1)O3 (stereo unspecified) | 36.3 | 72.8 | > 100 | 40.6 | > 100 µM | 52.6 | > 100 | > 100 | 95 |  |  |  |  |  |  |  |  |  |  | 
NC(Cc1ccc(O)cc1)C(=O)N/N=C/c1ccc(N(CCCl)CCCl)cc1 (stereo unspecified) | > 100 | 62 | > 100 | > 100 | > 100 µM | > 100 |  | > 100 | > 100 | 1.42 | 19.3 | > 100 | 14.2 | 58.7 | 7.52 | 44.5 | 21.4 | 10.1 | 0.454 | 
CCOc1ccc(/C=N\N2C(=O)c3ccccc3C2=O)cc1 | > 100 | > 100 | > 100 |  |  | > 100 | > 100 | > 100 | > 100 |  |  |  |  |  |  |  |  |  |  | 
COc1ccc(/C=C/c2ccnc3ccccc23)cc1 | 32.7 | 26.3 | 29.4 | 31.4 | 31.1 µM | 16.5 | 30.6 | 45 | 34 |  |  |  |  |  |  |  |  |  |  | 
CCOC(=O)C/C(N)=C(\C#N)C(=O)OCC | > 100 | > 100 | > 100 |  | > 100 µM | > 100 | > 100 | > 100 | > 100 |  |  |  |  |  |  |  |  |  |  | 
CN=c1ss/c(=N\C(=S)N(C)C)n1C1CCCCC1 | > 31.6 | > 31.6 | > 31.6 |  | > 31.6 µM | > 10 | > 31.6 | > 100 | > 31.6 |  |  |  |  |  |  |  |  |  |  | 
Cc1ccc(SC2C(C)(C)N(C(C)C)P2(=O)N(C(C)C)C(C)C)cc1 (stereo unspecified) | > 100 | > 100 | > 100 |  | > 64.1 µM | 58.3 | > 100 | 36.8 | > 59.3 |  |  |  |  |  |  |  |  |  |  | 
COc1ccc(-c2nnc(Nc3nc(O)c(C4=c5cc(OC(F)(F)F)ccc5=NC4=O)s3)o2)cc1 | 40.5 | 90.8 | > 100 | > 100 | > 100 µM | 43.5 |  | 37.2 | 49.3 | 16.5 | 19.7 | 37.7 | 5.75 | 17.8 | 39.7 | 25.4 | 15.7 | 14.2 | 18.5 | 
COC(=O)CSc1n[nH]c(-c2ccccc2)n1 | > 100 | > 100 | > 100 |  | > 100 µM | > 100 | > 100 | > 100 | 43.2 |  |  |  |  |  |  |  |  |  |  | 
CC(N)CN.CC(N)CN.[Cl-].[O]=[Os+2]=[O] (stereo unspecified) | > 100 | > 100 | > 100 |  | > 100 µM |  | > 100 | > 100 |  | > 100 |  |  | 81.4 | > 100 |  | 70.2 |  | 40.3 |  | > 100
COC(=O)[C@H]1CC(=O)C=C2CCCC21 (stereo partly specified) | > 100 | > 100 | > 100 |  | > 100 µM | > 100 | > 100 | > 100 | > 100 |  |  |  |  |  |  |  |  |  |  | 
O=C1c2ccccc2-c2c1c1c(O)cccc1n2CCCc1ccccc1 | 67.9 | > 100 | > 100 | > 100 | > 100 µM | > 100 |  | 51.9 | > 100 | 14 | 16 | 63.6 | 9.82 | > 100 | 48.4 | 17.8 | 45.3 | 13.7 | 30.4 | 
COc1ccc(C2c3cc4c(c(OC)c3CC3OCC(=O)C32)OCO4)cc1OC (stereo unspecified) | > 100 |  | > 100 |  | 0.074 µM and 0.0135 µM | > 100 |  |  |  |  | < 0.01 | > 100 |  |  |  | < 0.01 |  |  |  | 
CC1(C)C(=O)CCC(=O)C(C)(C)C2=CC=C(O2)C(C)(C)C(=O)CCC(=O)C(C)(C)C2=CC=C1O2 |  | > 100 | > 100 |  | > 100 µM | > 100 | > 100 |  | > 100 |  |  |  |  |  |  |  |  |  |  | 
CC(C)(C)C1CCC(CI)(N=[N+]=[N-])CC1 (stereo unspecified) | > 100 | > 100 |  |  | > 100 µM | > 100 | > 100 | > 100 | > 100 |  |  |  |  |  |  |  |  |  |  | 
O=c1c2cc(Br)ccc2[nH]c(=S)n1-c1ccccc1 | > 100 | > 100 | > 100 |  | > 100 µM | > 100 | > 100 | > 100 |  |  |  |  |  |  |  |  |  |  |  | 

SMILES | TGI (SN12C renal) [µM] | TGI (OVCAR-3 ovarian) [µM] | TGI (SK-MEL-28 melanoma) [µM] | TGI (MCF7 breast) [µM] | TGI (COLO 205 colon) | TGI (HOP-92 NSCLC) [µM] | TGI (MALME-3M melanoma) [µM] | TGI (RPMI-8226 leukemia) [µM] | TGI (MOLT-4 leukemia) [µM] | GI50 (SN12C renal) [µM] | GI50 (BT-549 breast) [µM] | TGI (BT-549 breast) [µM] | GI50 (OVCAR-3 ovarian) [µM] | GI50 (SK-MEL-28 melanoma) [µM] | GI50 (MCF7 breast) [µM] | GI50 (COLO 205 colon) [µM] | GI50 (HOP-92 NSCLC) [µM] | GI50 (RPMI-8226 leukemia) [µM] | GI50 (MOLT-4 leukemia) [µM] | GI50 (MALME-3M melanoma) [µM]
O=[N+]([O-])c1ccc(Oc2cccc(C(F)(F)F)c2)c([N+](=O)[O-])c1 | 13.4 | 9.21 | 19.9 | 8.33 | 6.04 µM | 5.39 | 23.9 | 7.62 | 2.92 | 3.63 |  |  | 3.19 | 6.47 | 2.81 | 2.64 | 1.25 | 2.6 | 0.344 | 5.66
COc1ccc(/C=c2\sc3nnc(CCC(=O)Nc4cccc(C(F)(F)F)c4)n3c2=O)cc1 | > 100 | > 100 | > 100 |  | > 100 µM | > 100 | > 100 | > 95.5 | > 27.4 |  |  |  |  |  |  |  |  |  |  | 
O=S1c2ccccc2N=C(c2ccc3ccccc3c2)CC1c1ccccc1F (stereo unspecified) | > 100 | > 100 | > 100 |  | > 100 µM |  | > 100 | > 100 | > 100 |  |  |  |  |  |  |  |  |  |  | 
CC1=C(C(=O)Nc2cccc(C(F)(F)F)c2)C(c2ccccc2F)C(C(=O)Nc2cccc(C(F)(F)F)c2)=C(C)N1 | 23.9 | 17.8 | 23.7 |  | 20.5 µM | 9.11 | 21.8 | 10.1 | 8.41 |  |  |  |  |  |  |  |  |  |  | 
CN(C(=O)C12C3C4C1C1C2C3C41C(=O)N(C)C(C)(C)C)C(C)(C)C (stereo unspecified) | > 50 | > 50 | > 50 |  | > 50 µM | > 50 | > 50 |  | > 50 |  |  |  |  |  |  |  |  |  |  | 
CC(C)(C)C1CCP(=O)(c2ccccc2)CC1 (stereo unspecified) | > 100 | > 100 | > 100 |  | > 100 µM |  | > 100 | > 100 | > 100 |  |  |  |  |  |  |  |  |  |  | 
Cc1nn2c(=O)n(-c3cccc(-n4nnc5c(-c6ccccc6)c(C)nn5c4=O)c3C)nnc2c1-c1ccccc1 | 36.5 | 44.3 |  |  | 42.7 µM | > 100 | 56 | 96.4 | 50 |  |  |  |  |  |  |  |  |  |  | 
Cc1ccc(NC(C(=O)c2ccccc2)c2ccccc2)cc1 (stereo unspecified) | > 100 | 59.9 | 37.3 | 40.7 | 13.7 µM | 8.95 | 9.52 | 14.6 | > 100 | 3.55 |  |  | 3.31 | 8.07 | 3.79 | 3.02 | 3.58 | 2.71 | 4.71 | 2.42
COc1cc(-c2ccccc2)c(OC)cc1CCl | > 100 | > 100 |  |  | > 100 µM |  | > 100 | > 100 | > 100 |  |  |  |  |  |  |  |  |  |  | 
Cc1ccc(C)c(NC(=O)C(=O)CC(=O)c2cccc3ccccc23)c1 | > 100 | > 100 | > 100 |  | > 100 µM | > 100 | > 100 | > 100 | > 100 |  |  |  |  |  |  |  |  |  |  | 
C=C(CS(=O)(=O)c1ccccc1)C(=O)OCC | 31.1 | 26.5 | 28.9 |  | 38.9 µM | 40 | 39.1 |  | 17.8 |  |  |  |  |  |  |  |  |  |  | 
COc1cc(C2CC(=O)c3c(C)nn(-c4nc5ccccc5[nH]4)c3C2)cc(OC)c1OC (stereo unspecified) |  |  | > 100 | > 100 | > 100 µM |  |  | > 100 |  |  | 76.6 | > 100 |  | > 100 | > 100 | > 100 |  | > 100 |  | 
COc1ccc2oc(-c3cc4cc(OC)ccc4o3)cc2c1 | > 100 | > 100 | > 100 |  | > 100 µM | > 100 | > 100 | > 100 | > 100 |  |  |  |  |  |  |  |  |  |  | 
Cc1cc(C(=O)N2CCN(C)CC2)c2c(=O)n(-c3ccccc3)c(=O)n(CC(O)CN3CCN(c4ncccn4)CC3)c2n1 (stereo unspecified) | > 100 | > 100 | > 100 | > 100 | > 100 µM | > 100 | > 100 | > 100 | > 100 | > 100 |  |  | > 100 | > 100 | > 100 | > 100 | > 100 | > 100 | > 100 | > 100
NC(=O)c1ccccc1NC(=O)C(=O)Nc1n[nH]c(N)n1 | > 100 | > 100 |  |  | > 100 µM |  | > 100 | > 100 | > 100 |  |  |  |  |  |  |  |  |  |  | 

From PubChem BioAssay (NCI)
